Test results: patent publication US10131652B2, “Pyrimidinyloxy benzene derivatives as herbicides” (E. I. DU PONT DE NEMOURS AND COMPANY, priority 2014, dated 2018)
Read-outs that look alike come from different tables or passages of the source.

Legend:
Assay in all cases: Test D pre-/postemergence plant response
Assay type in all cases: in vivo
[1] = tested on: yellow nutsedge (Cyperus esculentus); conditions: Cyperus, pre-emergence; Preemergence; 62 g ai/ha; scale 0 to 100 (0 no effect, 100 complete control); read-out: Plant response rating, Nutsedge, Yellow
Source text: (§1) Seeds of plant species selected from blackgrass (Alopecurus myosuroides), Italian ryegrass (Lolium multiflorum), winter wheat (Triticum aestivum), galium (catchweed bedstraw, Galium aparine), corn (Zea mays), large (Lg) crabgrass (Digitaria sanguinalis), giant foxtail (Setaria faberii), johnsongrass (Sorghum halepense), lambsquarters (Chenopodium album), morningglory (Ipomoea coccinea), yellow nutsedge (Cyperus esculentus), pigweed (Amaranthus retroflexus), ragweed (common ragweed, Ambrosia elatior), soybean (Glycine max), bamyardgrass (Echinochloa crus-galli), oilseed rape (Brassica napus), waterhemp (common waterhemp, Amaranthus rudis), and velvetleaf (Abutilon theophrasti) were planted into a blend of loam soil and sand and treated preemergence with test chemicals formulated in a non-phytotoxic solvent mixture which included a surfactant. At the same time, plants selected from these crop and weed species and also kochia (Kochia scoparia), wild oat (Avena fatua), and chickweed (common chickweed, Stellaria media) were planted in pots containing Redi-Earth® planting medium (Scotts Company, 14111 Scottslawn Road, Marysville, Ohio 43041) comprising spaghnum peat moss, vermiculite, wetting agent and starter nutrients and treated with postemergence applications of test chemicals formulated in the same manner. Plants ranged in height from 2 to 18 cm (1- to 4-leaf stage) for postemergence treatments. Treated plants and controls were maintained in a greenhouse for 13 to 15 days, after which time all species were compared to controls and visually evaluated. Plant response ratings, summarized in Table D, are based on a scale of 0 to 100 where 0 is no effect and 100 is complete control. A dash (-) response means no test result.

[2] = tested on: large (Lg) crabgrass (Digitaria sanguinalis); conditions: Digitaria sanguinalis; for pest or weed control at 8 g/ha: 8 g ai/ha; for pest or weed control at 16 g/ha: 16 g ai/ha; for pest or weed control at 31 g/ha: 31 g ai/ha; for pest or weed control at 62 g/ha: 62 g ai/ha
Source text: as §1

[3] = tested on: morningglory (Ipomoea coccinea); conditions: Ipomoea; for pest or weed control at 8 g/ha: 8 g ai/ha; for pest or weed control at 16 g/ha: 16 g ai/ha; for pest or weed control at 31 g/ha: 31 g ai/ha; for pest or weed control at 62 g/ha: 62 g ai/ha
Source text: as §1

[4] = tested on: barnyardgrass (Echinochloa crus-galli); conditions: Echinochloa crus-galli; for pest or weed control at 8 g/ha: 8 g ai/ha; for pest or weed control at 16 g/ha: 16 g ai/ha; for pest or weed control at 31 g/ha: 31 g ai/ha; for pest or weed control at 62 g/ha: 62 g ai/ha
Source text: as §1

[5] = tested on: giant foxtail (Setaria faberii); conditions: Setaria faberi; for pest or weed control at 8 g/ha: 8 g ai/ha; for pest or weed control at 16 g/ha: 16 g ai/ha; for pest or weed control at 31 g/ha: 31 g ai/ha; for pest or weed control at 62 g/ha: 62 g ai/ha
Source text: as §1

[6] = tested on: blackgrass (Alopecurus myosuroides); conditions: Alopecurus myosuroides; for pest or weed control at 8 g/ha: 8 g ai/ha; for pest or weed control at 16 g/ha: 16 g ai/ha; for pest or weed control at 31 g/ha: 31 g ai/ha; for pest or weed control at 62 g/ha: 62 g ai/ha
Source text: as §1

[7] = tested on: johnsongrass (Sorghum halepense); conditions: Sorghum halepense; for pest or weed control at 8 g/ha: 8 g ai/ha; for pest or weed control at 16 g/ha: 16 g ai/ha; for pest or weed control at 31 g/ha: 31 g ai/ha; for pest or weed control at 62 g/ha: 62 g ai/ha
Source text: as §1

[8] = post-emergence, Postemergence, scale 0 to 100 (0 no effect, 100 complete control), read-out: Crabgrass, Large plant response rating
[9] = pre-emergence, Preemergence, scale 0 to 100 (0 no effect, 100 complete control), read-out: Plant response rating, Crabgrass, Large
[10] = post-emergence, Postemergence, scale 0 to 100 (0 no effect, 100 complete control), read-out: Morningglory plant response rating
[11] = pre-emergence, Preemergence, scale 0 to 100 (0 no effect, 100 complete control), read-out: Plant response rating, Morningglory
[12] = post-emergence, Postemergence, scale 0 to 100 (0 no effect, 100 complete control), read-out: Barnyardgrass plant response rating
[13] = pre-emergence, Preemergence, scale 0 to 100 (0 no effect, 100 complete control), read-out: Plant response rating, Barnyardgrass
[14] = post-emergence, Postemergence, scale 0 to 100 (0 no effect, 100 complete control), read-out: Foxtail, Giant plant response rating
[15] = pre-emergence, Preemergence, scale 0 to 100 (0 no effect, 100 complete control), read-out: Plant response rating, Foxtail, Giant
[16] = post-emergence, Postemergence, scale 0 to 100 (0 no effect, 100 complete control), read-out: Blackgrass plant response rating
[17] = pre-emergence, Preemergence, scale 0 to 100 (0 no effect, 100 complete control), read-out: Plant response rating, Blackgrass
[18] = post-emergence, Postemergence, scale 0 to 100 (0 no effect, 100 complete control), read-out: Johnsongrass plant response rating
[19] = pre-emergence, Preemergence, scale 0 to 100 (0 no effect, 100 complete control), read-out: Plant response rating, Johnsongrass

FC(F)c1cc(-c2ccccc2Oc2ncc(Cl)cn2)no1 [Compound 35, 5-chloro-2-[2-[5-(difluoromethyl)-3-isoxazolyl]phenoxy]pyrimidine]
pest or weed control at 62 g/ha [1]: 5% | pest or weed control at 8 g/ha ([2]; post-emergence, Postemergence, read-out: Plant response rating (scale 0 to 100), Crabgrass, Large): 5% | pest or weed control at 16 g/ha [2, 8]: 10% | pest or weed control at 31 g/ha [2, 8]: 10% | pest or weed control at 62 g/ha ([2]; post-emergence, Postemergence, scale 0 to 100, 0 no effect, 100 complete control, read-out: Plant response rating, Crabgrass, Large): 10% | pest or weed control at 8 g/ha [2, 9]: 80% | pest or weed control at 16 g/ha [2, 9]: 100% | pest or weed control at 31 g/ha [2, 9]: 100% | pest or weed control at 62 g/ha [2, 9]: 100% | pest or weed control at 8 g/ha ([3]; post-emergence, Postemergence, read-out: Plant response rating (scale 0 to 100), Morningglory): 25% | pest or weed control at 16 g/ha [3, 10]: 60% | pest or weed control at 31 g/ha [3, 10]: 85% | pest or weed control at 62 g/ha ([3]; post-emergence, Postemergence, scale 0 to 100, 0 no effect, 100 complete control, read-out: Plant response rating, Morningglory): 98% | pest or weed control at 8 g/ha [3, 11]: 0% | pest or weed control at 16 g/ha [3, 11]: 0% | pest or weed control at 31 g/ha [3, 11]: 55% | pest or weed control at 62 g/ha [3, 11]: 90% | pest or weed control at 8 g/ha ([4]; post-emergence, Postemergence, read-out: Plant response rating (scale 0 to 100), Barnyardgrass): 10% | pest or weed control at 16 g/ha [4, 12]: 15% | pest or weed control at 31 g/ha [4, 12]: 20% | pest or weed control at 62 g/ha ([4]; post-emergence, Postemergence, scale 0 to 100, 0 no effect, 100 complete control, read-out: Plant response rating, Barnyardgrass): 20% | pest or weed control at 62 g/ha ([4]; pre-emergence, Preemergence, read-out: Plant response rating (scale 0 to 100), Barnyardgrass): 100% | pest or weed control at 8 g/ha [4, 13]: 5% | pest or weed control at 16 g/ha [4, 13]: 65% | pest or weed control at 31 g/ha [4, 13]: 75% | pest or weed control at 8 g/ha ([5]; post-emergence, Postemergence, read-out: Plant response rating (scale 0 to 100), Foxtail, Giant): 5% | pest or weed control at 16 g/ha [5, 14]: 5% | pest or weed control at 31 g/ha [5, 14]: 10% | pest or weed control at 62 g/ha ([5]; post-emergence, Postemergence, scale 0 to 100, 0 no effect, 100 complete control, read-out: Plant response rating, Foxtail, Giant): 15% | pest or weed control at 8 g/ha [5, 15]: 70% | pest or weed control at 16 g/ha [5, 15]: 90% | pest or weed control at 31 g/ha [5, 15]: 98% | pest or weed control at 62 g/ha [5, 15]: 100% | pest or weed control at 8 g/ha ([6]; post-emergence, Postemergence, read-out: Plant response rating (scale 0 to 100), Blackgrass): 30% | pest or weed control at 16 g/ha [6, 16]: 35% | pest or weed control at 31 g/ha [6, 16]: 40% | pest or weed control at 62 g/ha ([6]; post-emergence, Postemergence, scale 0 to 100, 0 no effect, 100 complete control, read-out: Plant response rating, Blackgrass): 60% | pest or weed control at 8 g/ha [6, 17]: 70% | pest or weed control at 16 g/ha [6, 17]: 70% | pest or weed control at 31 g/ha [6, 17]: 90% | pest or weed control at 62 g/ha [6, 17]: 90% | pest or weed control at 8 g/ha ([7]; post-emergence, Postemergence, read-out: Plant response rating (scale 0 to 100), Johnsongrass): 0% | pest or weed control at 16 g/ha [7, 18]: 10% | pest or weed control at 31 g/ha [7, 18]: 5% | pest or weed control at 62 g/ha ([7]; post-emergence, Postemergence, scale 0 to 100, 0 no effect, 100 complete control, read-out: Plant response rating, Johnsongrass): 35% | pest or weed control at 8 g/ha [7, 19]: 0% | pest or weed control at 16 g/ha [7, 19]: 10% | pest or weed control at 31 g/ha [7, 19]: 60% | pest or weed control at 62 g/ha [7, 19]: 98%
